Measured values reported in ChEMBL document CHEMBL1201862, “PubChem BioAssay data set” (2004).
One block for each compound: values may come before it. Activity calls are given as the source filed them.

Tests used:
[1] = biological target: T1, Corticotropin-releasing factor receptor 2/Corticotropin-releasing factor-binding protein (Homo sapiens, UniProt P24387+Q13324); assay: Dose Response confirmation of uHTS hits for small molecule antagonists of the CRF-binding protein and CRF-R2 receptor complex.; assay type: functional; conditions: read-out: IC50_Mean
T1 sequence (Q13324 whole entry): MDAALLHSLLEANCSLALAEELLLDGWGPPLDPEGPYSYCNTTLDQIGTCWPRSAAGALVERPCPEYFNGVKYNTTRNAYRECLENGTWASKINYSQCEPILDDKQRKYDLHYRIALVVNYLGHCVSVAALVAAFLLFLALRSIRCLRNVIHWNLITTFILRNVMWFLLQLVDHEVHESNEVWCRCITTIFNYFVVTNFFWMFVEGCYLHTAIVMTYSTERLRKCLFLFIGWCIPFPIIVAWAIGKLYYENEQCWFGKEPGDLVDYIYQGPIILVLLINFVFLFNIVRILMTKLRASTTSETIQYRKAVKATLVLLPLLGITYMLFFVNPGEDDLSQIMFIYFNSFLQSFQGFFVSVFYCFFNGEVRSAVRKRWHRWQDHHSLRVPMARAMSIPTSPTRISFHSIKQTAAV
T1 sequence (P24387 whole entry): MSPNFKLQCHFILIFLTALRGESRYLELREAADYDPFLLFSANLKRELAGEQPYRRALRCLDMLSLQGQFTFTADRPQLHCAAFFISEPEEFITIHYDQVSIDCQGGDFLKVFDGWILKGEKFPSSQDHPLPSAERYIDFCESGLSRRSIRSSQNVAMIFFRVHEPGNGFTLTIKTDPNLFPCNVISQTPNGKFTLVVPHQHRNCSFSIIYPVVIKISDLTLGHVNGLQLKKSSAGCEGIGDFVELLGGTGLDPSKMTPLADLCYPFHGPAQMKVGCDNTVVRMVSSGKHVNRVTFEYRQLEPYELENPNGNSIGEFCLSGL

[2] = biological target: T1, Corticotropin-releasing factor receptor 2/Corticotropin-releasing factor-binding protein; assay: activators of CRF receptor 2 with binding protein – uHTS hits, confirmation (AID 602473); assay type: functional; conditions: read-out: EC50_Mean
[3] = biological target: T2, Calpain-2 catalytic subunit (Sus scrofa, UniProt P43367); assay: m-calpain protease blockers, concentration series – biochemical, fluorogenic peptide substrate, dose response (AID 1420); assay type: functional
T2 sequence (P43367 whole entry): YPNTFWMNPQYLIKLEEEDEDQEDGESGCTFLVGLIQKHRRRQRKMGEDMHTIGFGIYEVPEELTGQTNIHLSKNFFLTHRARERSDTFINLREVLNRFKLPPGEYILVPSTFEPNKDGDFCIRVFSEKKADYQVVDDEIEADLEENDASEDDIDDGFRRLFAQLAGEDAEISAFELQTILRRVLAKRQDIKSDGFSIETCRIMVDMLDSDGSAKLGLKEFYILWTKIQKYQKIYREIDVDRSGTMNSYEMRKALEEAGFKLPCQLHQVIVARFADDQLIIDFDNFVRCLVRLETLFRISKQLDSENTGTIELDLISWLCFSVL

[4] = biological target: T3, Ubiquitin-conjugating enzyme E2 N (Homo sapiens, UniProt P61088); assay type: functional;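 further: Dose-response confirmation in a TR-FRET assay detecting UBC13-driven polyubiquitin chain formation, inhibition measured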
T3 sequence (P61088 whole entry): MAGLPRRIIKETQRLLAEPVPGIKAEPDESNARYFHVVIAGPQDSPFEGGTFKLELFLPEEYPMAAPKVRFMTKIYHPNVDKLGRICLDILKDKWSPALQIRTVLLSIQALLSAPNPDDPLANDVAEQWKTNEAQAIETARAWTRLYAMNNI

[5] = biological target: T4, Histone-lysine N-methyltransferase NSD2 (Homo sapiens, UniProt O96028); assay type: biochemical
T4 sequence (O96028 whole entry): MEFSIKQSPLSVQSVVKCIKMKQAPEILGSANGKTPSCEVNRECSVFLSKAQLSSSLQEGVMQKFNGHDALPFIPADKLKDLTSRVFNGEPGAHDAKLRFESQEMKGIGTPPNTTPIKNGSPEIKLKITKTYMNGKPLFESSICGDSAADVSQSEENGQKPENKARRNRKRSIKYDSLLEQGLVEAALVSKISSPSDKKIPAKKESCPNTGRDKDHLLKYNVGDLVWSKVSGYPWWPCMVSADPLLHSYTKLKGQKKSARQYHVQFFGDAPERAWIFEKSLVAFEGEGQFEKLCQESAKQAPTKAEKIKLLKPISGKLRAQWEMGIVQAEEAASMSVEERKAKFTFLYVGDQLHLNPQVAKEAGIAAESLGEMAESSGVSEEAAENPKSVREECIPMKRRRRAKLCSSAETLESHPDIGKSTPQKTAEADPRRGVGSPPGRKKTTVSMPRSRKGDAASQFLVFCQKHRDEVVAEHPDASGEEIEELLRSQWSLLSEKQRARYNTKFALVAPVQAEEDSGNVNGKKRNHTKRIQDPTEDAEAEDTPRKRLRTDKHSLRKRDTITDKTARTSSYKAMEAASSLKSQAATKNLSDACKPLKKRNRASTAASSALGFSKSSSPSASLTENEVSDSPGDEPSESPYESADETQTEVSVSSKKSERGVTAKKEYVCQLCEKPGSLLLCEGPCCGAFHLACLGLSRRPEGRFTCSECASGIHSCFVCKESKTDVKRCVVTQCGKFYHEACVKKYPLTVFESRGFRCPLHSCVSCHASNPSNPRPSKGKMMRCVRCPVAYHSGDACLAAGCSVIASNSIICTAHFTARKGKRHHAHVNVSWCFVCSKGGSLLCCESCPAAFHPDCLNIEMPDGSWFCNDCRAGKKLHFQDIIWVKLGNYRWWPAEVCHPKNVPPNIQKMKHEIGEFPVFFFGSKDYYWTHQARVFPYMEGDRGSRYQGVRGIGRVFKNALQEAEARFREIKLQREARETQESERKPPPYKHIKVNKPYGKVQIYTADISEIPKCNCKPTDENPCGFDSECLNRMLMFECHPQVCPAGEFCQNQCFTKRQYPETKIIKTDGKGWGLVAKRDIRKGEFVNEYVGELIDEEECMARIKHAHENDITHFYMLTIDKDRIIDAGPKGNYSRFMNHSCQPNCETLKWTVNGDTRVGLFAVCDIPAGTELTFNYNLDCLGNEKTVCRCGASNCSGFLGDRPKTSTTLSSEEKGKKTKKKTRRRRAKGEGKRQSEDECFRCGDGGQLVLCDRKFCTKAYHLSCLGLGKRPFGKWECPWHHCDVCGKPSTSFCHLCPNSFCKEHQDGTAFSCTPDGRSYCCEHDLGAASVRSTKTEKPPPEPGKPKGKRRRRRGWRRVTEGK

Large T antigen = Large T antigen (Simian virus 40, UniProt P03070); assay type: functional, Betapolyomavirus macacae;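 further: Confirmatory-stage PubChem screen for compounds that inhibit SV40 T antigen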
[6] = IGROV1 cell killing – plate reader, dry powder samples, PAX8 inhibitor project, dose response (AID 743043); assay type: functional, cell-based; conditions: IGROV-1
Paired box protein Pax-8 = Paired box protein Pax-8 (Homo sapiens, UniProt Q06710); assay: PAX8 transcriptional activity inhibition in RMG-I – RMG-I cells, luciferase, cherry-pick, dose response (AID 687027); assay type: functional, cell-based;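 further: luciferase reporter driven by Pax8 target thyroperoxidase promoter measured by SteadyGlo luminescence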
[7] = OVCAR-3 cell viability loss – plate reader, dry powder samples, PAX8 inhibitor project, dose response (AID 743044); assay type: functional, cell-based

Sequence of Large T antigen (P03070 whole entry): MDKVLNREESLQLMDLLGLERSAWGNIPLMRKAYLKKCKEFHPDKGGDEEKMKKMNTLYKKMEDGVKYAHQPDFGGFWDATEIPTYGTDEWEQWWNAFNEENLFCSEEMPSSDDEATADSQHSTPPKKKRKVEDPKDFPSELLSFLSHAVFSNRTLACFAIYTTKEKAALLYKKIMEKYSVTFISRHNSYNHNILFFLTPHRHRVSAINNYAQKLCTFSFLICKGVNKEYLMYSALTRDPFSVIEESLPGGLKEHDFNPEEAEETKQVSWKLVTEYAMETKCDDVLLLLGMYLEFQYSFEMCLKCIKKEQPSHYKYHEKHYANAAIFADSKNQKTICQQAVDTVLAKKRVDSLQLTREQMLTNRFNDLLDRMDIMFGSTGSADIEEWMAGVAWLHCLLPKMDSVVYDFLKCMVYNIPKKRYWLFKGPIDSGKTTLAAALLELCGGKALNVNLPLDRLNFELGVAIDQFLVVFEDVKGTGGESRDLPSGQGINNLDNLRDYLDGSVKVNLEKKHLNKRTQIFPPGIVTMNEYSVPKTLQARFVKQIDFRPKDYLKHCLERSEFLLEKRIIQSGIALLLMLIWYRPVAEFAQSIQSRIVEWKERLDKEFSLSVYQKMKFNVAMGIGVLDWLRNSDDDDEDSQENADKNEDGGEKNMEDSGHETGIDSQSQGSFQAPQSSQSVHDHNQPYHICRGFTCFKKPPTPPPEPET
Sequence of Paired box protein Pax-8 (Q06710 whole entry): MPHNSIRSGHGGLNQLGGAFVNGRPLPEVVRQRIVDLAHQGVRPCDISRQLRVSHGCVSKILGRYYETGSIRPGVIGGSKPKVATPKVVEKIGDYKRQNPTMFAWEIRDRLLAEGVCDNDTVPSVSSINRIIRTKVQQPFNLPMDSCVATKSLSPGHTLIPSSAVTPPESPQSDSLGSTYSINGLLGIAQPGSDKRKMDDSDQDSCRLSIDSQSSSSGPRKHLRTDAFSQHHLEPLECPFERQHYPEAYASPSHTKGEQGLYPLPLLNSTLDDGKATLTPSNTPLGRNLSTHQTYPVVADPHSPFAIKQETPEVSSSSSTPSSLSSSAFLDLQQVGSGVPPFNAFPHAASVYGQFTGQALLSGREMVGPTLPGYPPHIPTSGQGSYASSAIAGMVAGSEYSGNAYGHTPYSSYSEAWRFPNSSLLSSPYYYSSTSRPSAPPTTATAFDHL

Structure (SMILES): CC1CN(C(c2ccco2)c2sc3ncnn3c2O)CC(C)O1 (centres undefined)
IC50 [1]: > 47.1 µM (inactive)
EC50 [2]: > 53 µM (inactive)

Structure (SMILES): Cc1ccc(-c2noc(CSc3nnc(Cc4ccccc4)n3-c3cccc(C)c3)n2)cc1
IC50 [3]: 5.35 µM (not active)

Structure (SMILES): CCCC[C@@H](CNC)NC[C@H](NCCCCC1CCCCC1)C(C)C
IC50 [4]: > 20 µM (inactive)

Structure (SMILES): O=C(/C=C/c1ccco1)Nc1ccccc1C(=O)O
AC50 [5]: > 20 µM (inactive)

Structure (SMILES): Cc1ccc(C2CC(c3cccs3)=NN2C(=O)c2ccco2)o1 (centres undefined)
IC50 [3]: > 50 µM (not active)

Structure (SMILES): NC(=O)COc1ncn(-c2ccccc2)n1
IC50 [1]: > 47.1 µM (inactive)
EC50 [2]: > 53 µM (inactive)

Structure (SMILES): C=C(C)c1cccc(C(C)(C)NC(=O)NC2CN3CCC2CC3)c1 (centres undefined)
AC50 [5]: 15.6 µM (active)

Structure (SMILES): CSc1ncccc1C(=O)N(C)CC(=O)Nc1cccc(F)c1
IC50 [1]: > 47.1 µM (inactive)
EC50 [2]: > 53 µM (inactive)

Structure (SMILES): COc1ccc(CN2CCS(=O)(=O)CC2)cc1OC
IC50 [1]: > 47.1 µM (inactive)
EC50 [2]: > 53 µM (inactive)

Structure (SMILES): C[C@H](CO)N1C[C@H](C)[C@H](CN(C)CC2CCCCC2)OCCCC[C@H](C)Oc2ccc(NC(=O)Nc3ccccc3)cc2C1=O
AC50 [6]: 38.2 µM (active)
AC50 (Paired box protein Pax-8): 14.2 µM (active)
AC50 [7]: 25 µM (active)

Structure (SMILES): C[C@H](CO)N1C[C@H](C)[C@H](CN(C)Cc2ccc(Cl)c(Cl)c2)OCCCC[C@H](C)Oc2ccc(NS(=O)(=O)c3ccc(F)cc3)cc2C1=O
AC50 (Paired box protein Pax-8): 4.85 µM (active)
AC50 [7]: 48.3 µM (active)

Structure (SMILES): Cc1ccc2nc(Cl)c(/C=N/Nc3ccc(C(=O)O)cc3)cc2c1
IC50 [3]: 4.02 µM (not active)

Continued, values first:

IC50 [3]: > 50 µM (not active)
Structure (SMILES): CCOC(=O)C1CCCN(c2c(NCCCN(C)c3ccccc3)c(=O)c2=O)C1 (centres undefined)

IC50 [4]: > 20 µM (inactive)
Structure (SMILES): CC(C)Cn1cc(C(=O)NC2CCN(Cc3ccccc3)CC2)c2c3ccccc3n(C)c2c1=O

IC50 [4]: > 20 µM (inactive)
Structure (SMILES): CCn1c(O)c(N=NC(S)=NCC2CCCO2)c2ccccc21 (centres undefined)

IC50 [3]: > 50 µM (not active)
Structure (SMILES): CCN(CC)S(=O)(=O)c1cc(NS(=O)(=O)c2ccccc2)ccc1C

IC50 [1]: > 47.1 µM (inactive)
EC50 [2]: > 53 µM (inactive)
Structure (SMILES): O=C(O)c1cccc2c1C(=O)N(Cc1ccccc1)C2

IC50 (Large T antigen): 8.46 µM (active)
Structure (SMILES): CC(=O)Nc1ccc(OC(=O)C(CCS(C)(=O)=O)N2C(=O)c3ccccc3C2=O)cc1 (centres undefined)

IC50 [3]: < 0.4 µM (not active)
Structure (SMILES): CCCOc1ccc(OCCN2CCCC(C)C2)cc1 (centres undefined)

IC50 [1]: > 47.1 µM (inactive)
EC50 [2]: > 53 µM (inactive)
Structure (SMILES): O=C(COC(=O)C1CCN(S(=O)(=O)c2ccccc2)CC1)NC(=O)c1ccc(OC(F)F)cc1

IC50 [4]: > 20 µM (inactive)
Structure (SMILES): CCc1ccc(N(C(=O)c2snc(C(N)=O)c2N)C(C(=O)NC2CCCC2)c2ccco2)cc1 (centres undefined)

IC50 [3]: 25.1 µM (not active)
Structure (SMILES): O=C(CCCN1C(=O)c2ccccc2C1=O)N1CCC(c2ccccc2)C1 (centres undefined)

IC50 [1]: > 47.1 µM (inactive)
EC50 [2]: > 53 µM (inactive)
Structure (SMILES): O=C(OCC(=O)N1CCN(c2ccccc2)CC1)c1ccccn1

IC50 (Large T antigen): 51.4 µM (active)
Structure (SMILES): CC1=NC(=S)NC(c2cccs2)/C1=C(\O)OCC(C)C (centres undefined)
